From patent US20060035811A1, “Methods of treating dry eye disease with lantibiotics” (priority 2002, published 2006)

Test system: New Zealand (albino) rabbits
Assay: Tear secretion in albino rabbits after topical instillation (Schirmer strips)
Format: in vivo
Details: for Tear secretion % Mean (% of baseline) / Tear secretion (mm) Mean: 1×50 microliters, right eye
Description: New Zealand (albino) rabbits were the experimental model used to test the action of duramycin. Four animals were involved for each formulation: Duramycin was used in a formulation at 0.5 mg/ml dissolved in saline (0.9% sodium chloride) at pH between 6 and 7 and was compared with 0.9% sodium chloride and with 0.9% sodium chloride at pH between 6 and 7 (vehicle). Animals were randomly allocated into 3 groups of 4 animals each by a computer controlled program.
Aliquots (1×50 microliters) were administered using a micropipette into the right eyes while the left eyes remained untreated. Sampling was performed in the right eyes for a constant interval of 15 seconds before the instillation and at 15, 30, 60, 120, and 180 minutes after instillation. Tear secretion was collected and measured on treated eyes using Schimer strips.
Tear secretion, measured as the tear migration onto Schirmer strips for 15 seconds, was expressed in millimeters (mm) and in percents (%) of baseline values. The % of baseline values was the mean of individual %. T max is the time when the maximum mean value is obtained and is expressed in minutes (min).
Mean AUC0-180 min value (area under the curve from baseline to 180 min) is the mean of individual AUC0-180 min values calculated using the trapezoidal rule and is expressed in mm×min and in %×min.

[1] = 15 min after instillation, 0.5 mg/ml
[2] = 30 min after instillation, 0.5 mg/ml
[3] = 60 min after instillation, 0.5 mg/ml
[4] = 120 min after instillation, 0.5 mg/ml
[5] = 180 min after instillation, 0.5 mg/ml
[6] = baseline to 180 min, trapezoidal rule, mean of individual values, 0.5 mg/ml

Substance: duramycin
- Tear secretion % Mean (% of baseline) (0 min (before instillation, baseline), 0.5 mg/ml): 100.0%
- Tear secretion (mm) Mean (0 min (before instillation, baseline), 0.5 mg/ml, Schirmer strip 15 seconds): 2.8 mm
- Increase of tear secretion compared with saline, based on AUC0-180 min in % (0.5 mg/ml vs saline treatment): 3.56 times
- Increase of tear secretion compared with saline, based on AUC0-180 min in mm (0.5 mg/ml vs saline treatment): 1.92 times
- Increase of tear secretion compared with saline, based on maximum value in % (0.5 mg/ml vs saline treatment): 4.59 times
- Increase of tear secretion compared with saline, based on maximum value in mm (0.5 mg/ml vs saline treatment): 2.47 times
- Tear secretion % Mean (% of baseline) [1]: 329.2%
- Tear secretion (mm) Mean [1]: 6.0 mm
- Tear secretion % Mean (% of baseline) [2]: 459.4%
- Tear secretion (mm) Mean [2]: 9.4 mm
- Tear secretion % Mean (% of baseline) [3]: 260.4%
- Tear secretion (mm) Mean [3]: 4.8 mm
- Tear secretion % Mean (% of baseline) [4]: 157.3%
- Tear secretion (mm) Mean [4]: 3.5 mm
- Tear secretion % Mean (% of baseline) [5]: 245.8%
- Tear secretion (mm) Mean [5]: 4.9 mm
- Tmax (time when the maximum mean tear secretion is obtained) (after instillation, 0.5 mg/ml): 30 min
- AUC 0-180 of tear secretion [6]: 891.6 mm × min
- AUC 0-180 of tear secretion (% of baseline) [6]: 44554.7 % × min
